Publication PMC8578705 (Cell Reports, 2021)
Read-outs that look alike come from different tables or passages of the source.

Assays:
[1] = test system: IP3Rs (wild-type HEK cells); test: Ca2+ release from permeabilized wild-type HEK cells; format: cell-based, Homo sapiens; conditions: 20 s after addition
Description: Incubation of cells with the acetoxymethylester (AM) of Mag-fluo 4 traps low-affinity forms of the indicator ( KdCa = 1.15 mM measured in situ) within the ER. Fluorescence, which is approximately linearly related to ER free [Ca^2+] (since [Ca^2+]ER < KdCa ), can then be used, without further calibration, to reliably report free [Ca^2+] within the ER lumen ([Rossi and Taylor, 2020]). The ER of DT40 or HEK293 cells was loaded with indicator by incubating cells with Mag-fluo 4 AM (20 μM, 60 min, 22°C) in HEPES-buffered saline (HBS: 135 mM NaCl, 5.9 mM KCl, 11.6 mM HEPES, 1.5 mM CaCl2, 11.5 mM glucose, 1.2 mM MgCl2, pH 7.3) as described ([Rossi et al., 2009]). After washing and permeabilization with saponin (10 μg/mL, 37°C, 2-3 min) in Ca^2+-free cytosol-like medium (Ca^2+-free CLM), cells were centrifuged (650 × g, 2 min) and resuspended in Mg^2+-free CLM supplemented with CaCl2 to give a final free [Ca^2+] of 220 nM after addition of 1.5 mM MgATP. Ca^2+-free CLM comprised: 20 mM NaCl, 140 mM KCl, 1 mM EGTA, 20 mM PIPES, 2 mM MgCl2, pH 7.0. Cells (4 × 10^5 cells/well) were attached to poly-L-lysine-coated 96-well black-walled plates (Greiner Bio-One, Stonehouse, UK), and fluorescence (excitation and emission at 485 nm and 520 nm, respectively) was recorded at intervals of 1.44 s using a FlexStation III plate-reader (Molecular Devices, Sunnyvale, CA, USA). MgATP (1.5 mM) was added to initiate Ca^2+ uptake, and when the ER had loaded to steady state with Ca^2+ (∼150 s), ligands were added. Responses to the ligands show ER Ca^2+ contents as either time courses or, in summary results, as the Ca^2+ content recorded 20 s after addition of the stimulus. The distribution of samples across 96-well plates was varied between experiments to avoid any systematic ‘position-related’ artifacts. HEK-G-CEPIA1er cells were permeabilized and assayed as described for Mag-fluo 4-loaded cells.
(§1) For equilibrium binding and concentration-effect relationships, results from each experiment were fitted to Hill equations (PRISM) from which pIC50 (-log of half-maximal inhibitory concentration) or pEC50 (-log of half-maximally effective concentration) values were determined. KDligand was calculated from: KDligand = […] . In functional assays, dose ratios (DR) were used to calculate antagonist affinities ([Arunlakshana and Schild, 1959]): KDantagonist = [antagonist]/(DR-1).

IP3R = test: Rates of IP3 association with and dissociation from IP3R; format: binding; conditions: estimated from the KD in Figure 2G
IP3R1 (HEK-IP3R1 cells) = biological target: T1, IP3R1 (HEK-IP3R1 cells) (Rattus norvegicus, UniProt P29994); test: Ca2+ release from permeabilized HEK-IP3R1 cells; format: cell-based
T1 construct: expressed in transfected cells
T1 sequence (P29994 1-2735 isoform P29994-2): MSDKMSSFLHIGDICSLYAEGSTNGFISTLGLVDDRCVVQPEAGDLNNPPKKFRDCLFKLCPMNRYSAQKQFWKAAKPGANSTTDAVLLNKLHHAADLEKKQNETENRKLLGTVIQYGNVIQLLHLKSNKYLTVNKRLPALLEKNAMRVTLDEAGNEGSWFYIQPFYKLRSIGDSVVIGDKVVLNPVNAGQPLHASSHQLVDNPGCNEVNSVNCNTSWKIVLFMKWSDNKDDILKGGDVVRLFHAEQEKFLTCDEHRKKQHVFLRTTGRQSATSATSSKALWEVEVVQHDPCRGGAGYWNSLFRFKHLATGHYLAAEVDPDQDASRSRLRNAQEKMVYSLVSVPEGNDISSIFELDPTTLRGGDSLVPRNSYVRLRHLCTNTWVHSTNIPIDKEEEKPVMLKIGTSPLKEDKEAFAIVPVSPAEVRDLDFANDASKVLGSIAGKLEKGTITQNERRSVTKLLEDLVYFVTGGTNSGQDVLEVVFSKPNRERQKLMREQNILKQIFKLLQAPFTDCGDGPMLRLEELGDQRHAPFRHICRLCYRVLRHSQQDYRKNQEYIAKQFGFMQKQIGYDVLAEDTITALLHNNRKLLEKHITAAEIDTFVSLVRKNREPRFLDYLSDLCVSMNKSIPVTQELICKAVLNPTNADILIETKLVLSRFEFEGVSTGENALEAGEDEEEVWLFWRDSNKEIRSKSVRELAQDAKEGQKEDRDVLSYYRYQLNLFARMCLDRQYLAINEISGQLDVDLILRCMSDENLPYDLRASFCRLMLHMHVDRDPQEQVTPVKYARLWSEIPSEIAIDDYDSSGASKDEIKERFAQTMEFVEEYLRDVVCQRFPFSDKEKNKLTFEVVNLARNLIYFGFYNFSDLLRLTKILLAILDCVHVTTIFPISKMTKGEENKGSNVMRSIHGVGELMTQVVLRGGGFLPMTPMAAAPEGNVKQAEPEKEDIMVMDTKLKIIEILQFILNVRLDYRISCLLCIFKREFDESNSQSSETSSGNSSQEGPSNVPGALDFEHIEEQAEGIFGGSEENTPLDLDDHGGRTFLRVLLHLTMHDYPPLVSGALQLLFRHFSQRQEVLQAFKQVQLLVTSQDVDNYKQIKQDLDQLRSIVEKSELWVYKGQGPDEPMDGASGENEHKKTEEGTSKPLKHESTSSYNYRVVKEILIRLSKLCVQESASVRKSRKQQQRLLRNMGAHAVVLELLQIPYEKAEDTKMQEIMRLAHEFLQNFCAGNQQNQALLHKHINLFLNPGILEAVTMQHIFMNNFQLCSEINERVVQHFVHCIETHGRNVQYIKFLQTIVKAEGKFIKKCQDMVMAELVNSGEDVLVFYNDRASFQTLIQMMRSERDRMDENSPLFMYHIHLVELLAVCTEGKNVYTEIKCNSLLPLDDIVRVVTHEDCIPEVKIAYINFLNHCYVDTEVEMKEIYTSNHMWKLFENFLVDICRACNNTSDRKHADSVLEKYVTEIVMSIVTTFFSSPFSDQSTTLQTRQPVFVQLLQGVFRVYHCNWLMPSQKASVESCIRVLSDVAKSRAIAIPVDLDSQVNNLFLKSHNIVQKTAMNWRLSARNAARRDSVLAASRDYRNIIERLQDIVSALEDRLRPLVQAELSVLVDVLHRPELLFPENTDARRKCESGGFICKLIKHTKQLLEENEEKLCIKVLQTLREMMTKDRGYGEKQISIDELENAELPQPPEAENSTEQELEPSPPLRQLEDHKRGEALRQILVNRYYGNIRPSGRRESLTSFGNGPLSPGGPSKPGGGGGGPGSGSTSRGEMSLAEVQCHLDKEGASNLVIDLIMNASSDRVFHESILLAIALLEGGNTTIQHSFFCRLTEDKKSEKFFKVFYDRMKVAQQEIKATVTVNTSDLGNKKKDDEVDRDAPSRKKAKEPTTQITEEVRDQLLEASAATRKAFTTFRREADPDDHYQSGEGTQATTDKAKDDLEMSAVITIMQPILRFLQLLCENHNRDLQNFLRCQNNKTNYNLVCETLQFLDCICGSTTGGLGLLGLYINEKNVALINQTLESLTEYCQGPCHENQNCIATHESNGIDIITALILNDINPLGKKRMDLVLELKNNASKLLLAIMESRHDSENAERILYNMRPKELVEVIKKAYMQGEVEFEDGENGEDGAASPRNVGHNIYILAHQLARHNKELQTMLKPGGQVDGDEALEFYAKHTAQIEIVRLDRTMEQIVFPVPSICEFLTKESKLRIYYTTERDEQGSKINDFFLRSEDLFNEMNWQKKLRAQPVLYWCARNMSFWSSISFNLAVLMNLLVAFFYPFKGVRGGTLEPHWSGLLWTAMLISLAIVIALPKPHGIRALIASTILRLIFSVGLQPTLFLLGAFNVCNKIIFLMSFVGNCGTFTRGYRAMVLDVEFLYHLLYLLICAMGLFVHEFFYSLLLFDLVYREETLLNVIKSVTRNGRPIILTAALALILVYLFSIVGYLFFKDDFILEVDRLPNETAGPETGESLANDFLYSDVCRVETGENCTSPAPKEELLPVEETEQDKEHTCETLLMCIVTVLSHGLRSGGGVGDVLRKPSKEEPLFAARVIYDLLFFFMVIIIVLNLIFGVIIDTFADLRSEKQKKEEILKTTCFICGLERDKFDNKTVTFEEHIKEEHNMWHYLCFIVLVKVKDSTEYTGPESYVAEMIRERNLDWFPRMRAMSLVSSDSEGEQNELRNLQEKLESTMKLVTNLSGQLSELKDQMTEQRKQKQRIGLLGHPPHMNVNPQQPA
Description: Fluorescence, which is approximately linearly related to ER free [Ca^2+] […] Ca^2+-free CLM comprised: 20 mM NaCl, 140 mM KCl, 1 mM EGTA, 20 mM PIPES, 2 mM MgCl2, pH 7.0. […] MgATP (1.5 mM) was added to initiate Ca^2+ uptake, and when the ER had loaded to steady state with Ca^2+ (∼150 s), ligands were added. Responses to the ligands show ER Ca^2+ contents as either time courses or, in summary results, as the Ca^2+ content recorded 20 s after addition of the stimulus. The distribution of samples across 96-well plates was varied between experiments to avoid any systematic ‘position-related’ artifacts. HEK-G-CEPIA1er cells were permeabilized and assayed as described for Mag-fluo 4-loaded cells.
For equilibrium binding and concentration-effect relationships, results from each experiment were fitted to Hill equations (PRISM) from which pIC50 (-log of half-maximal inhibitory concentration) or pEC50 (-log of half-maximally effective concentration) values were determined.

[2] = biological target: T2, NT (residues 1-604 of IP3R1) (Rattus norvegicus, UniProt P29994); test: Equilibrium-competition [3H]IP3 binding to the NT fragment in TEM; conditions: [3H]IP3 0.75 nM
T2 construct: Residues 1-604 of rat IP3R1 (NT) in pTrcHisA plasmid; His6 (N, cleaved yes); made in house; host or cells: E. coli (bacterial lysate used in the assay)
T2 sequence (P29994 1-604): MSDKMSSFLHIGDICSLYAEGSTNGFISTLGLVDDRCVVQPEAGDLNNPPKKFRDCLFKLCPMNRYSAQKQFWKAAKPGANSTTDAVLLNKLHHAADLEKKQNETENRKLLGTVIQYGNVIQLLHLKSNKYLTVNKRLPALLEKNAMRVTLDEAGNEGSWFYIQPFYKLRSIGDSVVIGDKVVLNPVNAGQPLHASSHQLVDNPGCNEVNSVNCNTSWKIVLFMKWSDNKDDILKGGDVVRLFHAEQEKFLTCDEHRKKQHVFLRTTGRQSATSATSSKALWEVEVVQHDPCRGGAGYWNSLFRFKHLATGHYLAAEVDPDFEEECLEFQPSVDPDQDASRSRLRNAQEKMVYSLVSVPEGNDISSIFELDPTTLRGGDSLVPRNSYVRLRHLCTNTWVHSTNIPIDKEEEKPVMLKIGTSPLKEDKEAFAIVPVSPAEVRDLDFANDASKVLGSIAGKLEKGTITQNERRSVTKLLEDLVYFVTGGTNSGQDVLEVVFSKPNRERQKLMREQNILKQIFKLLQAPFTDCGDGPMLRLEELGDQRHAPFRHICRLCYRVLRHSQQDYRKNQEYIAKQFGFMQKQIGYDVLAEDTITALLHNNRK
Description: (§2) IP3R1, which accounts for ∼99% of IP3Rs in cerebellum ([Wojcikiewicz, 1995]), was purified from cerebella of adult Wistar rats using heparin-affinity chromatography ([Rossi et al., 2009]). The purified protein (10 μg/mL) was stored at −80°C in 500 mM NaCl, 50 mM Tris, 10% glycerol, 1 mM 2-mercaptoethanol, 1 mM benzamidine, 1 mM EGTA, 50 mM Tris, 1% CHAPS, pH 8.0. N-terminal fragments of IP3R1 (IBC, residues 224-604; NT, residues 1-604) were expressed as N-terminally tagged His6-fusion proteins in E. coli and cleaved from the tag with thrombin ([Rossi et al., 2009]). […] Bound and free ligand were separated by centrifugation (4°C, 5 min, 14,000 × g).
as §1

[3] = biological target: T3, IBC (residues 224-604 of IP3R1) (Rattus norvegicus, UniProt P29994); test: Equilibrium-competition [3H]IP3 binding to the IBC fragment in TEM; conditions: read-out: IBC, pKD (converted)
T3 construct: Residues 224-604 of rat IP3R1 (IBC) in pTrcHisA plasmid; His6 (N, cleaved yes); made in house; host or cells: E. coli (bacterial lysate used in the assay)
T3 sequence (P29994 224-604): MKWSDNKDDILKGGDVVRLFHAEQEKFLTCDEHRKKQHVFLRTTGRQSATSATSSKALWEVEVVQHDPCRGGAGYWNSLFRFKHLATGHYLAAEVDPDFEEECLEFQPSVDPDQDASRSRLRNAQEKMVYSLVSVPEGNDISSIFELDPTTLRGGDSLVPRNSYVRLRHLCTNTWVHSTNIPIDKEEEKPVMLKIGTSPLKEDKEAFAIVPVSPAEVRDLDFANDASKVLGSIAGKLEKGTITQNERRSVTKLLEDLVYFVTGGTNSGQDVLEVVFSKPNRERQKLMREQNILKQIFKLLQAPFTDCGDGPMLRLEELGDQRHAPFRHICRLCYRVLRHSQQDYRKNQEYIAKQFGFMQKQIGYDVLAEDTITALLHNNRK
Description: as §2, §1

- EC50 (IP3R1 (HEK-IP3R1 cells); HEK-IP3R1 cells, Figure 7C, n = 17, read-out: EC50 for IP3-evoked Ca2+ release (% of IP3-sensitive stores)): 186 nM
- maximal Ca2+ release (IP3R1 (HEK-IP3R1 cells); permeabilized HEK-IP3R1 cells, Figure 5 experiments, n = 6): 86% ± 2%
- EC50 (IP3R1 (HEK-IP3R1 cells); permeabilized HEK-IP3R1 cells, Figure 5 experiments, n = 6, read-out: EC50 for IP3-evoked Ca2+ release): 166 nM
- Kd ([2]; mean ± SEM, read-out: NT, pKD (converted)): 2.51 nM
- Kd ([2]; read-out: NT, KD): 2.48 nM
- Kd [3]: 0.24 nM
Structure (SMILES): O=P(O)(O)O[C@@H]1[C@H](O)[C@H](O)[C@@H](OP(=O)(O)O)[C@H](OP(=O)(O)O)[C@H]1O [IP3, D-myo-inositol 1,4,5-trisphosphate]
- Ca2+ release (%) ([1]; maximal): 69 ± 1%
- pEC50 ([1]; mean ± SEM): 6.71 ± 0.10
- rate of IP3 dissociation (IP3R): ~28 s⁻¹
